Experimental data from paper PMC4872164, “Therapeutic Blockade of Immune Complex-Mediated Glomerulonephritis by Highly Selective Inhibition of Bruton’s Tyrosine Kinase” (Scientific Reports, 2016).

Target: Bruton's tyrosine kinase (BTK) (Homo sapiens, UniProt Q06187)
Assay: TR-FRET LanthaScreen binding assay (affinity, kinact/Ki […] ^-1 s^-1); BTK enzyme IC50; co-crystallization and mass spectrometry (not shown)
Type: biochemical

Sequence of Bruton's tyrosine kinase (BTK) (Q06187 2-659): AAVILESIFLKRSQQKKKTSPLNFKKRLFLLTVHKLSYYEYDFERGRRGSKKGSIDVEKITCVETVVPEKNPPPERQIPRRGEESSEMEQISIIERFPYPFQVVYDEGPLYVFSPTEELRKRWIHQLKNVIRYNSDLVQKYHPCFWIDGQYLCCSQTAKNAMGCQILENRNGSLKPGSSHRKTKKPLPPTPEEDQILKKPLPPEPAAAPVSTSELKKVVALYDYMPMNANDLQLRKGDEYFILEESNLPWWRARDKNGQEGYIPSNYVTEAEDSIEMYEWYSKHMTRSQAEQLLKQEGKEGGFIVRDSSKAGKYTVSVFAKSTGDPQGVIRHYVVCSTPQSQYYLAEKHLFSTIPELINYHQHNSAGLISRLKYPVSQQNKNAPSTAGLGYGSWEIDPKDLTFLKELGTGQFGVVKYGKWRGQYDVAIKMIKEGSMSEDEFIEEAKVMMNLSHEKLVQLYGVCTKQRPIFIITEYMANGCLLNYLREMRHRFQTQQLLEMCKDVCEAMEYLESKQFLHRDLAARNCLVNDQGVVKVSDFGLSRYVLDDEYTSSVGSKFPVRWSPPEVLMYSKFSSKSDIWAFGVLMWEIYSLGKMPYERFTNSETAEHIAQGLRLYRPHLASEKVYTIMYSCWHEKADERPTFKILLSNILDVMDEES

IC50: 0.9 nM
Substance: BI-BTK-1
